Measurements as given in PubChem BioAssay AID248 (DTP/NCI, 2004).
Several values for one entry are separate records, joined by “and”; a condition that tells them apart may be missing. Equal entries are not always repeated. Inconclusive results and toxic doses are left out.

Test system: L1210 leukemia ip in BDF1 mice, survival T/C
Experiment: NCI In Vivo Anticancer Drug Screen. Data for tumor model L1210 Leukemia (intraperitoneal) in B6D2F1 (BDF1) mice
Settings: endpoint: mean survival time, higher = longer survival
Outline: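 Value reflects the ratio of survival in compound-treated mice to survival in vehicle-treated controls, with both groups carrying the same transplanted tumor.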

## CC1CCC(NC(=O)N(CCCl)N=O)CC1 (stereo not given)
dose: 0.1 mg/kg/injection, schedule: Q01DX001 (ip), vehicle: clinical formulation
  T/C: 211 % of control
dose: 0.2 mg/kg/injection, schedule: Q01DX001 (ip), vehicle: clinical formulation
  T/C: 119 % of control
dose: 0.4 mg/kg/injection, schedule: Q01DX001 (ip), vehicle: clinical formulation
  T/C: 223 % of control
dose: 0.45 mg/kg/injection, schedule: Q01DX009 (ip), vehicle: saline with Tween-80
  T/C: 99 % of control and 103 % of control
dose: 0.9 mg/kg/injection, schedule: Q01DX009 (ip), vehicle: saline with Tween-80
  T/C: 106 % of control and 118 % of control
dose: 1.0 mg/kg/injection, schedule: Q01DX001 (ip), vehicle: other
  T/C: 112 % of control
dose: 1.0 mg/kg/injection, schedule: Q04DX002 (ip), vehicle: saline with Tween-80
  T/C: 95 % of control and 100 % of control
dose: 2.0 mg/kg/injection, schedule: Q01DX001 (ip), vehicle: other
  T/C: 118 % of control
dose: 2.0 mg/kg/injection, schedule: Q01DX009 (ip), vehicle: saline
  T/C: 98 % of control
dose: 2.0 mg/kg/injection, schedule: Q04DX002 (ip), vehicle: saline with Tween-80
  T/C: 101 % of control and 120 % of control
dose: 2.5 mg/kg/injection, schedule: Q01DX Z (ip), vehicle: Klucel (hydroxypropylcellulose) (HPC)
  T/C: 115 % of control
dose: 3.1 mg/kg/injection, schedule: Q07DX003 (ip), vehicle: Klucel (hydroxypropylcellulose) (HPC)
  T/C: 109 % of control
dose: 4.0 mg/kg/injection, schedule: Q01DX009 (ip), vehicle: saline
  T/C: 104 % of control
dose: 4.0 mg/kg/injection, schedule: Q04DX002 (ip), vehicle: saline with Tween-80
  T/C: 103 % of control and 107 % of control
dose: 5.0 mg/kg/injection, schedule: Q01DX Z (ip), vehicle: Klucel (hydroxypropylcellulose) (HPC)
  T/C: 205 % of control
dose: 6.0 mg/kg/injection, schedule: Q01DX001 (ip), vehicle: other
  T/C: 154 % of control
dose: 6.2 mg/kg/injection, schedule: Q07DX003 (ip), vehicle: Klucel (hydroxypropylcellulose) (HPC)
  T/C: 100 % of control
dose: 6.7 mg/kg/injection, schedule: Q04DX004 (ip), vehicle: saline with Tween-80
  T/C: 206 % of control
dose: 8.0 mg/kg/injection, schedule: Q01DX001 (ip), vehicle: other
  T/C: 165 % of control
dose: 8.0 mg/kg/injection, schedule: Q01DX009 (ip), vehicle: saline
  T/C: 117 % of control
dose: 10.0 mg/kg/injection, schedule: Q01DX001 (ip), vehicle: Klucel (hydroxypropylcellulose) (HPC)
  T/C: 445 % of control
dose: 10.0 mg/kg/injection, schedule: Q01DX001 (ip), vehicle: clinical formulation
  T/C: 280 % of control
dose: 10.0 mg/kg/injection, schedule: Q01DX001 (ip), vehicle: saline
  T/C: 328 % of control
dose: 10.0 mg/kg/injection, schedule: Q01DX001 (iv), vehicle: clinical formulation
  T/C: 186 % of control and 205 % of control and 245 % of control
dose: 10.0 mg/kg/injection, schedule: Q01DX Z (ip), vehicle: Klucel (hydroxypropylcellulose) (HPC)
  T/C: 240 % of control and 282 % of control
dose: 10.0 mg/kg/injection, schedule: Q04DX004 (ip), vehicle: saline with Tween-80
  T/C: 273 % of control
dose: 10.7 mg/kg/injection, schedule: Q01DX001 (ip), vehicle: saline with Tween-80
  T/C: 181 % of control
dose: 12.0 mg/kg/injection, schedule: Q01DX001 (ip), vehicle: other
  T/C: 213 % of control
dose: 12.5 mg/kg/injection, schedule: Q01DX001 (ip), vehicle: other
  T/C: 241 % of control
dose: 12.5 mg/kg/injection, schedule: Q01DX001 (ip), vehicle: saline
  T/C: 172 % of control
dose: 12.5 mg/kg/injection, schedule: Q07DX003 (ip), vehicle: Klucel (hydroxypropylcellulose) (HPC)
  T/C: 294 % of control
dose: 13.0 mg/kg/injection, schedule: Q01DX001 (ip), vehicle: other
  T/C: 196 % of control
dose: 15.0 mg/kg/injection, schedule: Q01DX001 (ip), vehicle: clinical formulation
  T/C: 218 % of control
dose: 15.0 mg/kg/injection, schedule: Q01DX001 (ip), vehicle: saline
  T/C: 238 % of control
dose: 15.0 mg/kg/injection, schedule: Q01DX001 (iv), vehicle: clinical formulation
  T/C: 326 % of control
dose: 15.0 mg/kg/injection, schedule: Q01DX001 (iv), vehicle: saline
  T/C: 154 % of control
dose: 15.0 mg/kg/injection, schedule: Q04DX004 (ip), vehicle: saline with Tween-80
  T/C: 319 % of control
dose: 16.0 mg/kg/injection, schedule: Q01DX001 (ip), vehicle: other
  T/C: 321 % of control
dose: 18.0 mg/kg/injection, schedule: Q01DX001 (ip), vehicle: other
  T/C: 265 % of control
dose: 20.0 mg/kg/injection, schedule: Q01DX001 (ip), vehicle: Klucel (hydroxypropylcellulose) (HPC)
  T/C: 442 % of control
